Values joined by “and” are separate entries in the source; they are usually repeats but may differ in a detail not shown here. Identical values can stand only once.
System: 287954-098-R-J1 tumor spheroid viability
Assay: Anticancer human tumor 287954-098-R-J1 patient-derived Ewing sarcoma cell line growth inhibition
Conditions: spheroids with HUVEC and MSC; for viability, T/C: stronger effect = lower value
Source text: Multicellular complex tumor spheroid response to DNA repair inhibitors in combination with DNA-damaging drugs
This study explores the anticancer activities of DNA-damaging drugs and inhibitors of DNA damage repair, both as single agents and in combinations. Complex tumor spheroids comprised of malignant cells, endothelial cells and mesenchymal stem cells served as an in vitro model for human solid tumors. This model system incorporates physiologically relevant features and patient-derived or established malignant cell lines with clinically relevant genetic alterations from many tumor types. Twenty-six patient-derived or established malignant cell lines were evaluated representing sarcoma, melanoma, small cell lung cancer (SCLC), non-small cell lung cancer (NSCLC), as well as bladder, ovarian and pancreatic cancers. The concentration ranges selected for each drug and investigational agent were based upon clinically achievable concentrations if the clinical Cmax of the agent was known.
Compounds. The drugs and compounds olaparib (NSC753686), talazoparib (NSC767125), berzosertib (NSC777718), elimusertib (NSC800525), nedisertib (NSC802822), VX-984 (NSC792969), AZD-1390 (NSC803789), temozolomide (NSC362856), topotecan (NSC609699), trabectedin (NSC813783), staurosporine (NSC755774), and gemcitabine (NSC613327) were obtained from the National Cancer Institute (NCI) Developmental Therapeutics Program Chemical Repository. The FDA-approved anticancer drug set is available from the Developmental Therapeutics Program at https://dtp.cancer.gov/organization/dscb/obtaining/available_plates.htm. […] The stock solutions were prepared in dimethyl sulfoxide (DMSO, Sigma-Aldrich, St. Louis, MO, cat. D2650) at 400-fold the tested concentration and stored at -70 degrees C. Prior to their use, the stock solutions were diluted in fresh medium and the final DMSO concentration in the assay was 0.25% (v/v). All drugs and investigational agents were tested over a range starting from a high concentration at or near the clinical Cmax and decreasing in half-log increments. If the clinical Cmax for an agent had not been determined, the highest concentration tested was 10 microM.
Cell Lines. The patient-derived cancer cell (PDC) lines: 156681-154-R-J1-PDC, 283228-195-R-J1-PDC, 287954-098-R-J1-PDC, 292921-168-R-J2-PDC, 349418-098-R-PDC, 425362-245-T-J1-PDC, 556581-035-R-J1-PDC, and BL0293-F563-PDC were received from the NCI Patient-Derived Models Repository (PDMR, https://pdmr.cancer.gov). The established cell lines HS-SY-2 (RRID:CVCL_8719), MPNST, and SYO-1 (RRID:CVCL_7146) were obtained from the Sloan Kettering Institute. The alveolar soft parts sarcoma cell line ASPS-1 (RRID:CVCL_S738) was established at the NCI and grown from internal seed stocks. The following established cell lines were purchased from the American Type Culture Collection (ATCC, Manassas, VA): G-401 (ATCC, cat. CRL-1441, RRID:CVCL_0270), SW982 (ATCC, cat. HTB-93, RRID:CVCL_1734), VA-ES-BJ (ATCC, cat. CRL-2138, RRID:CVCL_1785), NCI-H719 (ATCC, cat. CRL-5837, RRID:CVCL_1582), NCI-H196 (ATCC, cat. CRL-5823, RRID:CVCL_1509), NCI-H841 (ATCC, cat. CRL-5845, RRID:CVCL_1595), NCI-H1618 (ATCC, cat. CRL-5879, RRID:CVCL_1480), NCI-H1876 (ATCC, cat. CRL-5902, RRID:CVCL_1503), DMS 114 (ATCC, cat. CRL-2066; RRID:CVCL_1174), NCI-H211 (ATCC, cat. CRL-5824; RRID:CVCL_1529), and SW 1271 (ATCC, cat. CRL-2177, RRID:CVCL_1716). The small cell lung cancer cell line COR-L88 was purchased from Sigma-Aldrich (cat. 92031917-1VL, RRID:CVCL_1141). The non-small cell lung cancer cell lines NCI-H226 (RRID:CVCL_1544) and NCI-H322M (RRID:CVCL_1557) were established at the NCI and grown from internal seed stocks. Pooled donor human umbilical vein endothelial cells (HUVEC, Lonza, cat. CC-2519) and human mesenchymal stem cells (hMSC, Lonza, cat. PT-2501) were purchased from Lonza (Walkersville, MD).
Cell Culture. All cells were maintained in an incubator at 37 degrees C and 5% CO2 with 95% humidity. […]
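Further: spheroids exposed to compound for 7 days before viability readout.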
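Wherever viability, T/C is given: luminescent signal taken as surrogate of viable cell content; 100% = DMSO vehicle control viability and lower means growth inhibition.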

CC1COCCN1c1cc(-c2ccnn2C)c2ccnc(-c3ccn[nH]3)c2n1 (centres undefined)
viability, T/C (compound 0.0316 µM): 107% and 114% and 106%
viability, T/C (compound 0.1 µM): 78.3% and 89.9% and 97.7%
viability, T/C (compound 0.316 µM): 22.6% and 21.9% and 32.2%
viability, T/C (compound 1 µM): 6.79% and 3.9% and 8.44%
viability, T/C (compound 3.16 µM): 1.99% and 1.74% and 1.91%
viability, T/C (compound 10 µM): 3.29% and 2.26% and 3.3%
IC50 (curve of compound): 0.18 µM and 0.197 µM and 0.232 µM

CNCc1ccc(-c2cc(-c3nc(-c4ccc(S(=O)(=O)C(C)C)cc4)cnc3N)on2)cc1
viability, T/C (compound 0.00949 µM): 103% (2×) and 109%
viability, T/C (compound 0.03 µM): 108% and 117% and 107%
viability, T/C (compound 0.0949 µM): 110% and 112% and 105%
viability, T/C (compound 0.3 µM): 107% and 103% (2×)
viability, T/C (compound 0.949 µM): 0.28% and 0.55% and 0.27%
viability, T/C (compound 3 µM): 0.18% and 0.53% and 0.23%
IC50 (curve of compound): 0.555 µM and 0.545 µM and 0.542 µM

Cn1ncnc1[C@H]1c2n[nH]c(=O)c3cc(F)cc(c23)N[C@@H]1c1ccc(F)cc1 + CC[C@@]1(O)C(=O)OCc2c1cc1n(c2=O)Cc2cc3c(CN(C)C)c(O)ccc3nc2-1
IC50 (curve of first compound, second compound 0.003 µM): 0.453 µM
IC50 (curve of first compound, second compound 0.00949 µM): 0.0748 µM
IC50 (curve of first compound, second compound 0.03 µM): < 0.00949 µM
IC50 (curve of first compound, second compound 0.0949 µM): < 0.00949 µM
IC50 (curve of first compound, second compound 0.3 µM): < 0.00949 µM
viability, T/C (second compound 0.003 µM, first compound 0.00949 µM): 99.9%
viability, T/C (second compound 0.003 µM, first compound 0.03 µM): 97.6%
viability, T/C (second compound 0.003 µM, first compound 0.0949 µM): 105%
viability, T/C (second compound 0.003 µM, first compound 0.3 µM): 76.4%
viability, T/C (second compound 0.003 µM, first compound 0.949 µM): 2.29%
viability, T/C (second compound 0.003 µM, first compound 3 µM): 2.4%
viability, T/C (second compound 0.00949 µM, first compound 0.00949 µM): 90.6%
viability, T/C (second compound 0.00949 µM, first compound 0.03 µM): 74.2%
viability, T/C (second compound 0.00949 µM, first compound 0.0949 µM): 45.6%
viability, T/C (second compound 0.00949 µM, first compound 0.3 µM): 2.19%
viability, T/C (second compound 0.00949 µM, first compound 0.949 µM): 2.05%
viability, T/C (second compound 0.00949 µM, first compound 3 µM): 2.02%
viability, T/C (second compound 0.03 µM, first compound 0.00949 µM): 2.23%
viability, T/C (second compound 0.03 µM, first compound 0.03 µM): 1.81%
viability, T/C (second compound 0.03 µM, first compound 0.0949 µM): 2.46%
viability, T/C (second compound 0.03 µM, first compound 0.3 µM): 2.34%
viability, T/C (second compound 0.03 µM, first compound 0.949 µM): 1.82%
viability, T/C (second compound 0.03 µM, first compound 3 µM): 2.07%
viability, T/C (second compound 0.0949 µM, first compound 0.00949 µM): 1.93%
viability, T/C (second compound 0.0949 µM, first compound 0.03 µM): 1.99%
viability, T/C (second compound 0.0949 µM, first compound 0.0949 µM): 2.15%
viability, T/C (second compound 0.0949 µM, first compound 0.3 µM): 1.75%
viability, T/C (second compound 0.0949 µM, first compound 0.949 µM): 2.09%
viability, T/C (second compound 0.0949 µM, first compound 3 µM): 1.72%
viability, T/C (second compound 0.3 µM, first compound 0.00949 µM): 1.85%
viability, T/C (second compound 0.3 µM, first compound 0.03 µM): 1.99%
viability, T/C (second compound 0.3 µM, first compound 0.0949 µM): 1.97%
viability, T/C (second compound 0.3 µM, first compound 0.3 µM): 1.59%
viability, T/C (second compound 0.3 µM, first compound 0.949 µM): 1.85%
viability, T/C (second compound 0.3 µM, first compound 3 µM): 1.48%
